Where a name gives a salt, the structure may show the parent alone.
Legend:
[1] = target: T1, adenosine A2a receptor (Human) (Homo sapiens, UniProt P29274); test: c-AMP generating action in cell expressing adenosine A2a receptor; format: cell-based; details: HEK293 cell expressing human A2a; 100% = c-AMP caused by 1 μM CGS-21680; read-out: A2a Agonistic Action (EC50)
T1 construct: host or cells: HEK293
Procedure: (1) c-AMP Generating Action in Cell Expressing Adenosine A2a Receptor
The test was carried out as mentioned below with reference to the method disclosed in the reference (Klotz k. N. et al., Naunyn-Schmiedeberg's Arch. Pharmacol., (1998) 357, 1-9; Shryock J. C. et al., Molecular Pharmacology, (1998) 53, 886-893).
As to the cell, HEK293 cell expressing adenosine A2a receptor (Human) (PerkinElmer Life Sciences, Code No. RBHA2AC) was used.
As to the culture medium, Dulbecco's modified Eagles medium (DMEM) including 10% FBS (Fetal bovine serum) and 1 mM of sodium pyruvate was used.
The cell was placed on 96 well plate (1×10^5/well), and cultured overnight. After removing off the supernatant, to each well, 0.1 ml of DMEM (without FBS) containing 20 mM HEPES, 0.1 mM of IBMX (3-isobutyl-1-methylxanthine) and 2 unit/mL adenosine deaminase was added, and they were incubated at 37° C. for 30 minutes. To each well, 0.1 ml of the culture medium including the DMSO solution of the test compound in an appropriate concentration was added and they were incubated for additional 30 minutes. After removing off the supernatant, the cytolytic solution was added to quench the reaction. The amount of c-AMP in each well was measured by using the c-AMP enzyme immunoassay (EIA) system (Amersham Biosciences, Code No. RPN225).
The same assay was repeated using CGS-21680 (2-p-carboxyethyl)phenethylamino-5′-N-ethylcarboxamidoadenosine hydrochloride, (Sigma, code C141) as reference compound. The amount of resultant c-AMP in the medium, caused by 1 μM of reference compound, was defined to be 100%. A concentration of assayed compound in the medium, producing 50% c-AMP amounts, was calculated to be EC50 value.

[2] = tested on: Intraocular Pressure in Rabbit; test: Measuring test for intraocular pressure in rabbit; format: in vivo, Female New Zealand white rabbits; details: 0.3% suspended ophthalmic preparation, test group, mean±standard error
Procedure: (3) Measuring Test for Intraocular Pressure in Rabbit
The test compounds were dissolved in 10 mM of phosphate buffer (pH 7.5) (hereinafter, referred to as “vehicle of ophthalmic preparation”), and they were instilled in a given concentration. In addition, the compounds insoluble in that concentration was used as a suspension. Female New Zealand white rabbits (KITAYAMA LABES Co., Ltd.) whose weights were 2.0-4.0 kg were used.
The measurement of the intraocular pressure was carried out using Pneumatonometer (Model 30 Classic, Mentor company) without anesthesia. In addition, before the measurement of the intraocular pressure, the surface anesthesia with 0.4% oxybuprocaine hydrochloride (“Benoxil” 0.4% ophthalmic solution, Santen Pharmaceutical Co., Ltd.) was carried out.
The animals whose intraocular pressure was stable before instillation were selected, and these animals were divided to every 4 animal in each one group, 50 μL of eye drops including each the test compound was administered to one-sided eye and vehicle was administered to contralateral eye as the control eye. The measurement of intraocular pressure was carried out before instillation and after 0.5, 1, 2, 3, 4 and 6 hours from instillation. The effect on the intraocular pressure was shown as the difference from pre-instillation (ΔIOP, mmHg, mean±standard error). The following Tables 14 and 15 show the results of Control Compounds A and B used as 1% suspensions which are the same as in the pharmacological test (1).
The animals were pretreated as mentioned above, and among them animals whose intraocular pressure was stable before instillation were selected, and these animals were divided to every 5 to 8 animal in each one group. Every two group was used for each of the test compounds. The test compound was administered unilaterally to the eye of the test group rabbit and the intraocular pressure was measured. The vehicle was administered unilaterally to the eye of the control group rabbit and the intraocular pressure was measured. As mentioned above, the measurement of intraocular pressure was carried out before instillation and after 0.5, 1, 2, 3, 4 and 6 hours from instillation, and the effect on the intraocular pressure was shown as the difference from pre-instillation (ΔIOP, mmHg, mean±standard error).

T1 sequence (P29274 whole entry): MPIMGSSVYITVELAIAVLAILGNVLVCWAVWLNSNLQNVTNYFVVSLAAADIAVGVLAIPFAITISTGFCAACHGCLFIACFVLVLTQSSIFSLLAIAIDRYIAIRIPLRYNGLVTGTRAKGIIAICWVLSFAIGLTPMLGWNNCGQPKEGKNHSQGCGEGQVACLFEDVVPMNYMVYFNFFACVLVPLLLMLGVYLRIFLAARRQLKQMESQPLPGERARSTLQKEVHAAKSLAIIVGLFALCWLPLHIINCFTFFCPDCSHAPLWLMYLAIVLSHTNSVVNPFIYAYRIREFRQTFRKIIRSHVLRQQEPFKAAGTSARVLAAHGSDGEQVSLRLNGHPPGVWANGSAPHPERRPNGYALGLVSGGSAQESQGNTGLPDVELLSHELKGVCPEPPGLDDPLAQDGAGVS

| Compound | EC50 [1] | other results |
| --- | --- | --- |
| CC(=O)Nc1ccc(-c2nc(SCc3ccc(C)cn3)nc(N)c2C#N)cc1 [Example 3, N-{4-[6-amino-5-cyano-2-(5-methylpyridin-2-ylmethylsulfanyl)pyrimidin-4-yl]phenyl}acetamide] | 65.7 nM |  |
| CCCC(=O)Nc1ccc(-c2nc(SCc3cccc(C)n3)nc(N)c2C#N)cc1 [Example 11, N-{4-[6-amino-5-cyano-2-(6-methylpyridin-2-ylmethylsulfanyl)pyrimidin-4-yl]phenyl}butylamide] | 395 nM |  |
| Cc1cccc(CSc2nc(N)c(C#N)c(-c3ccc(N)cc3)n2)n1 [Example 8, 4-amino-6-(4-aminophenyl)-2-(6-methylpyridin-2-ylmethylsulfanyl)-pyrimidine-5-carbonitrile] | 34.8 nM |  |
| CCNC(=O)[C@H]1O[C@@H](n2cnc3c(N)nc(NCCc4ccc(CCC(=O)O)cc4)nc32)[C@H](O)[C@@H]1O [CGS-21680, (2-p-carboxyethyl)phenethylamino-5′-N-ethylcarboxamidoadenosine hydrochloride, reference compound] |  | ΔIOP (mmHg) ([2]; 0.5 hr): −2.5 ± 0.4 mmHg; ΔIOP (mmHg) ([2]; 1 hr): −6.3 ± 0.6 mmHg; ΔIOP (mmHg) ([2]; 2 hr): −4.2 ± 0.4 mmHg; ΔIOP (mmHg) ([2]; 3 hr): −3.5 ± 0.4 mmHg; ΔIOP (mmHg) ([2]; 4 hr): −1.5 ± 0.7 mmHg; ΔIOP (mmHg) ([2]; 6 hr): 0.3 ± 0.4 mmHg |
| CC(=O)Nc1ccc(-c2nc(SCc3cc(C)ccn3)nc(N)c2C#N)cc1 [Example 4, N-{4-[6-amino-5-cyano-2-(4-methylpyridin-2-ylmethylsulfanyl)pyrimidin-4-yl]phenyl}acetamide] | 879 nM |  |
| CCCC(=O)Nc1ccc(-c2nc(SCc3cccc(CCC(=O)N4CCN(C)CC4)n3)nc(N)c2C#N)cc1 [Example 58, N-[4-(6-amino-5-cyano-2-{6-[3-(4-methylpiperazin-1-yl)-3-oxopropyl]pyridin-2-ylmethylsulfanyl}pyrimidin-4-yl)phenyl]-butylamide] | 38 nM |  |
| CC(=O)Nc1ccc(-c2nc(SCc3cccc(C=CC(=O)N4CCN(C)CC4)n3)nc(N)c2C#N)cc1 [Example 48, N-[4-(6-amino-5-cyano-2-{6-[3-(4-methylpiperazin-1-yl)-3-oxopropenyl]pyridin-2-ylmethylsulfanyl}pyrimidin-4-yl)-phenyl]acetamide] | 29.1 nM |  |
| CC(=O)Nc1ccc(-c2nc(SCc3cccc(CNC(=O)CCCN4CCCC4)n3)nc(N)c2C#N)cc1 [Example 33, N-{6-[4-(4-acetylaminophenyl)-6-amino-5-cyanopyrimidin-2-ylsulfanylmethyl]pyridin-2-ylmethyl}-4-pyrrolidin-1-ylbutyl-amide] | 48 nM |  |
| CCCS(=O)(=O)N(C)Cc1cccc(CSc2nc(N)c(C#N)c(-c3ccc(NC(C)=O)cc3)n2)n1 [Example 41, N-{4-[6-amino-5-cyano-2-(6-{[methyl(propan-1-sulfonyl)amino]methyl}-pyridin-2-ylmethylsulfanyl)pyrimidin-4-yl]phenyl}acetamide] | 23 nM |  |
| CC(=O)Nc1ccc(-c2nc(SCc3cccc(CCC(=O)OC(C)(C)C)n3)nc(N)c2C#N)cc1 [Example 42, t-butyl 3-{6-[4-(4-acetylaminophenyl)-6-amino-5-cyanopyrimidin-2-ylsulfanyl-methyl]pyridin-2-yl}propionate] | 10 nM |  |
| COC(=O)Nc1ccc(-c2nc(SCc3cccc(C)n3)nc(N)c2C#N)cc1 [Example 13, methyl {4-[6-amino-5-cyano-2-(6-methylpyridin-2-ylmethylsulfanyl)pyrimidin-4-yl]phenyl}-carbamate] | 13.5 nM |  |

Second part, led by results:

| EC50 [1] | Compound | other results |
| --- | --- | --- |
| 7.4 nM | CC(=O)Nc1ccc(-c2nc(SCc3cccc(CN4CCN(C(=O)c5ccccc5)CC4)n3)nc(N)c2C#N)cc1 [Example 19, N-(4-{6-amino-2-[6-(4-benzoylpiperazin-1-ylmethyl)pyridin-2-ylmethylsulfanyl]-5-cyanopyrimidin-4-yl}phenyl)acetamide] |  |
| 5.1 nM | CN1CCN(C(=O)CCc2cccc(CSc3nc(N)c(C#N)c(-c4ccc(N)cc4)n3)n2)CC1 [Example 56, 4-amino-6-(4-aminophenyl)-2-{6-[3-(4-methylpiperazin-1-yl)-3-oxopropyl]-pyridin-2-ylmethylsulfanyl}pyrimidin-5-carbonitrile] |  |
| 5.5 nM | CCN(CC)CCN1CCN(C(=O)CCCCc2cccc(CSc3nc(N)c(C#N)c(-c4ccc(NC(C)=O)cc4)n3)n2)CC1 [Example 55, N-{4-[6-amino-5-cyano-2-(6-{5-[4-(2-diethylaminoethyl)piperazin-1-yl]-5-oxopentyl}pyridin-2-ylmethylsulfanyl)pyrimidin-4-yl]phenyl}acetamide hydrochloride] |  |
| 5.3 nM | CC(=O)Nc1ccc(-c2nc(SCc3cccc(CCCCC(=O)N4CCN(C)CC4)n3)nc(N)c2C#N)cc1 [Example 54, N-[4-(6-amino-5-cyano-2-{6-[5-(4-methylpiperazin-1-yl)-5-oxopentyl]pyridin-2-ylmethyl-sulfanyl}pyrimidin-4-yl)phenyl]acetamide] |  |
| 6.8 nM | CC(=O)Nc1ccc(-c2nc(SCc3cccc(CN4CCN(C(=O)OC(C)(C)C)CC4)n3)nc(N)c2C#N)cc1 [Example 17, t-butyl 4-{6-[4-(4-acetylaminophenyl)-6-amino-5-cyanopyrimidin-2-ylsulfanyl-methyl]-pyridin-2-ylmethyl}piperazine-1-carboxylate] |  |
| 8.2 nM | CCC(=O)CCc1cccc(CSc2nc(N)c(C#N)c(-c3ccc(NC(C)=O)cc3)n2)n1 [Example 82, N-(4-{6-amino-5-cyano-2-[6-(3-oxopentyl)pyridin-2-ylmethylsulfanyl]pyrimidin-4-yl}phenyl)acetamide] |  |
| 7 nM | CC(=O)Nc1ccc(-c2nc(SCc3cccc(C#CCCC(=O)N4CCN(C)CC4)n3)nc(N)c2C#N)cc1 [Example 52, N-[4-(6-amino-5-cyano-2-{6-[5-(4-methylpiperazin-1-yl)-5-oxopent-1-ynyl]pyridin-2-ylmethylsulfanyl}pyrimidin-4-yl)phenyl]acetamide] |  |
| 2.5 nM | CC(=O)Nc1ccc(-c2nc(SCc3cccc(CCC(=O)N4CCNCC4)n3)nc(N)c2C#N)cc1 [Example 74, N-(4-{6-amino-5-cyano-2-[6-(3-oxo-3-piperazin-1-ylpropyl)pyridin-2-ylmethylsulfanyl]-pyrimidin-4-yl}phenyl)acetamide hydrochloride] |  |
| 2.8 nM | CC(=O)Nc1ccc(-c2nc(SCc3cccc(CCC(=O)NCCN)n3)nc(N)c2C#N)cc1 [Example 60, 3-{6-[4-(4-acetylaminophenyl)-6-amino-5-cyanopyrimidin-2-ylsulfanylmethyl]pyridin-2-yl}-N-(2-aminoethyl)propionamide hydrochloride] |  |
| 7.5 nM | CCN(CC)C1CCN(C(=O)CCc2cccc(CSc3nc(N)c(C#N)c(-c4ccc(NC(C)=O)cc4)n3)n2)CC1 [Example 68, N-[4-(6-amino-5-cyano-2-{6-[3-(4-diethylaminopiperidin-1-yl)-3-oxopropyl]pyridin-2-yl-methylsulfanyl}pyrimidin-4-yl)phenyl]acetamide hydrochloride salt] |  |
| 3.4 nM | CCC(=O)Nc1ccc(-c2nc(SCc3cccc(CCC(=O)N4CCN(C)CC4)n3)nc(N)c2C#N)cc1 [Example 57, N-[4-(6-amino-5-cyano-2-{6-[3-(4-methylpiperazin-1-yl)-3-oxopropyl]pyridin-2-ylmethylsulfanyl}pyrimidin-4-yl)phenyl]propionamide] |  |
